Key:
Assay type in all cases: biochemical
BIKE = BIKE (Homo sapiens (Human), UniProt Q9NSY1); experiment: KinaseProfiler radiometric assay (16-044KP); settings: mean of at least two independent experiments
Text: In another aspect, disclosed is a method of inhibiting citron kinase in a sample, comprising contacting the sample with a compound described herein (e.g., a compound of formula (I) or a pharmaceutically acceptable salt thereof), or a pharmaceutical composition described herein (e.g., a pharmaceutical composition comprising a compound of formula (I) or a pharmaceutically acceptable salt thereof), in an amount effective to inhibit citron kinase. In some embodiments, the step of contacting the sample with the compound comprises administering the compound to a subject (e.g., a subject) suffering from cancer. Methods of determining kinase inhibition are well known in the art. For example, kinase activity of an enzyme and the inhibitory capacity of a test compound can be determined by measuring enzyme specific phosphorylation of a substrate. Commercial assays and kits can be employed. For example, kinase inhibition can be determined using a radiometric binding assay, such as using KinaseProfiler™ technology (Eurofins Discovery). This assay method directly detects product formation without the use of modified substrates or coupling enzymes. […]
(§1) The effect of various compounds on the inhibition of other kinases has also been determined. Table 2 reports measured IC50 values; value units are nanomolar inhibition.

IKKβ = IKKβ (Homo sapiens (Human), UniProt O14920); experiment: KinaseProfiler radiometric assay (14-485KP); settings: mean of at least two independent experiments
Text: In another aspect, disclosed is a method of inhibiting citron kinase in a sample, comprising contacting the sample with a compound described herein (e.g., a compound of formula (I) or a pharmaceutically acceptable salt thereof), or a pharmaceutical composition described herein (e.g., a pharmaceutical composition comprising a compound of formula (I) or a pharmaceutically acceptable salt thereof), in an amount effective to inhibit citron kinase. In some embodiments, the step of contacting the sample with the compound comprises administering the compound to a subject (e.g., a subject) suffering from cancer. Methods of determining kinase inhibition are well known in the art. For example, kinase activity of an enzyme and the inhibitory capacity of a test compound can be determined by measuring enzyme specific phosphorylation of a substrate. Commercial assays and kits can be employed. For example, kinase inhibition can be determined using a radiometric binding assay, such as using KinaseProfiler™ technology (Eurofins Discovery). This assay method directly detects product formation without the use of modified substrates or coupling enzymes. Test compounds are incubated with kinase, substrate, required cofactors and radioisotope labeled ATP. Following incubation, unreacted radioactive ATP is removed by washing and incorporation of the radiolabeled phosphate into the kinase substrate is assayed to detect phosphoryltransferase activity, which is directly proportional to the amount of phosphorylated substrate. Inhibition of the kinase by a kinase inhibitor prevents phosphorylation of the substrate and thereby limits the incorporation of radiolabeled phosphate. Such an assay is compatible with a microwell assay format, allowing simultaneous determination of IC50 of multiple compounds.
as §1

A-Raf(h) = A-Raf(h) (Homo sapiens (Human), UniProt P10398); experiment: KinaseProfiler panel; parameters: dose or concentration left out as unconfirmed; settings: activity remaining
BrSK1(h) = BrSK1(h) (Homo sapiens (Human), UniProt Q8TDC3); experiment: KinaseProfiler panel; parameters: dose or concentration left out as unconfirmed; settings: activity remaining
eEF-2K(h) = eEF-2K(h) (Homo sapiens (Human), UniProt O00418); experiment: KinaseProfiler panel; parameters: dose or concentration left out as unconfirmed; settings: activity remaining
FGFR3(h) = FGFR3(h) (Homo sapiens (Human), UniProt P22607); experiment: KinaseProfiler panel; parameters: dose or concentration left out as unconfirmed; settings: activity remaining
Flt1(h) = Flt1(h) (Homo sapiens (Human), UniProt P17948); experiment: KinaseProfiler panel; parameters: dose or concentration left out as unconfirmed; settings: activity remaining
JAK3(h) = JAK3(h) (Homo sapiens (Human), UniProt P52333); experiment: KinaseProfiler panel; parameters: dose or concentration left out as unconfirmed; settings: activity remaining
MAP4K4(h) = MAP4K4(h) (Homo sapiens (Human), UniProt O95819); experiment: KinaseProfiler panel; parameters: dose or concentration left out as unconfirmed; settings: activity remaining
MRCKα(h) = MRCKα(h) (Homo sapiens (Human), UniProt Q5VT25); experiment: KinaseProfiler panel; parameters: dose or concentration left out as unconfirmed; settings: activity remaining
MSK2(h) = MSK2(h) (Homo sapiens (Human), UniProt O75676); experiment: KinaseProfiler panel; parameters: dose or concentration left out as unconfirmed; settings: activity remaining
MuSK(h) = MuSK(h) (Homo sapiens (Human), UniProt O15146); experiment: KinaseProfiler panel; parameters: dose or concentration left out as unconfirmed; settings: activity remaining
NEK11(h) = NEK11(h) (Homo sapiens (Human), UniProt Q8NG66); experiment: KinaseProfiler panel; parameters: dose or concentration left out as unconfirmed; settings: activity remaining
NIM1(h) = NIM1(h) (Homo sapiens (Human), UniProt Q8IY84); experiment: KinaseProfiler panel; parameters: dose or concentration left out as unconfirmed; settings: activity remaining
NUAK2(h) = NUAK2(h) (Homo sapiens (Human), UniProt Q9H093); experiment: KinaseProfiler panel; parameters: dose or concentration left out as unconfirmed; settings: activity remaining
PhKγ2(h) = PhKγ2(h) (Homo sapiens (Human), UniProt P15735); experiment: KinaseProfiler panel; parameters: dose or concentration left out as unconfirmed; settings: activity remaining
Pim-2(h) = Pim-2(h) (Homo sapiens (Human), UniProt Q9P1W9); experiment: KinaseProfiler panel; parameters: dose or concentration left out as unconfirmed; settings: activity remaining
Pim-3(h) = Pim-3(h) (Homo sapiens (Human), UniProt Q86V86); experiment: KinaseProfiler panel; parameters: dose or concentration left out as unconfirmed; settings: activity remaining
PKA(h) = PKA(h) (Homo sapiens (Human), UniProt P17612); experiment: KinaseProfiler panel; parameters: dose or concentration left out as unconfirmed; settings: activity remaining
Plk3(h) = Plk3(h) (Homo sapiens (Human), UniProt Q9H4B4); experiment: KinaseProfiler panel; parameters: dose or concentration left out as unconfirmed; settings: activity remaining
PRK2(h) = PRK2(h) (Homo sapiens (Human), UniProt Q16513); experiment: KinaseProfiler panel; parameters: dose or concentration left out as unconfirmed; settings: activity remaining
PTK5(h) = PTK5(h) (Homo sapiens (Human), UniProt P42685); experiment: KinaseProfiler panel; parameters: dose or concentration left out as unconfirmed; settings: activity remaining
Rsk2(h) = Rsk2(h) (Homo sapiens (Human), UniProt P51812); experiment: KinaseProfiler panel; parameters: dose or concentration left out as unconfirmed; settings: activity remaining
SIK(h) = SIK(h) (Homo sapiens (Human), UniProt P57059); experiment: KinaseProfiler panel; parameters: dose or concentration left out as unconfirmed; settings: activity remaining
TAO1(h) = TAO1(h) (Homo sapiens (Human), UniProt Q7L7X3); experiment: KinaseProfiler panel; parameters: dose or concentration left out as unconfirmed; settings: activity remaining
TSSK4(h) = TSSK4(h) (Homo sapiens (Human), UniProt Q6SA08); experiment: KinaseProfiler panel; parameters: dose or concentration left out as unconfirmed; settings: activity remaining

Chain of Rsk2(h) (P51812 whole entry): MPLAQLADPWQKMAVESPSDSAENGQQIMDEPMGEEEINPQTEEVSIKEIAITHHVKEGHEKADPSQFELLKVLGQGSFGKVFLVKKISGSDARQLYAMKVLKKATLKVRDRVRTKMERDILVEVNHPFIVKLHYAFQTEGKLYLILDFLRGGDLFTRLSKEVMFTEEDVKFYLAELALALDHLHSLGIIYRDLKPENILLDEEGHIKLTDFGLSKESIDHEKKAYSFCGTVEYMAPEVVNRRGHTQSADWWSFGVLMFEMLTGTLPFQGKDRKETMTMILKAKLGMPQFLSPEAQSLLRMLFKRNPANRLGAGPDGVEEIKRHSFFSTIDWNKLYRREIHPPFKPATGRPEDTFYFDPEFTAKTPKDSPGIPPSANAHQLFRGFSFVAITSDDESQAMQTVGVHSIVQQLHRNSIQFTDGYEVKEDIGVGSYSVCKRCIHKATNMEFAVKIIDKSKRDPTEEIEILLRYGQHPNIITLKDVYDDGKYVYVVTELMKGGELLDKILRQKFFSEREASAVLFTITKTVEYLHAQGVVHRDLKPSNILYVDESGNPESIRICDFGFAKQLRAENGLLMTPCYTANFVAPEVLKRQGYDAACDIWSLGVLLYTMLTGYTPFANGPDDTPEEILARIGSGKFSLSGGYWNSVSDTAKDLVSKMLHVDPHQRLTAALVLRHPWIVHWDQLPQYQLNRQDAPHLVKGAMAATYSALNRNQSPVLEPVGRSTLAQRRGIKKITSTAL
Chain of PhKγ2(h) (P15735 whole entry): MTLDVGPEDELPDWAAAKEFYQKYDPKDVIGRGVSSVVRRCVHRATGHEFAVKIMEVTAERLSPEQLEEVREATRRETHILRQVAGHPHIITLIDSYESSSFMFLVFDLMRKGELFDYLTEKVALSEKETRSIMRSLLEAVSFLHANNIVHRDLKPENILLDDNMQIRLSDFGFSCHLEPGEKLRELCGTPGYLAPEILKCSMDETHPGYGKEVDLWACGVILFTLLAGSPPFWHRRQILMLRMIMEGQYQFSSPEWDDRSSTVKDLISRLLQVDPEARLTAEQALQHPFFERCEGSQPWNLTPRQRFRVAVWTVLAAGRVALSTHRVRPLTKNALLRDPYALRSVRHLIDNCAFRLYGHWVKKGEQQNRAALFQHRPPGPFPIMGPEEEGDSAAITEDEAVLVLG
Chain of BIKE (Q9NSY1 whole entry): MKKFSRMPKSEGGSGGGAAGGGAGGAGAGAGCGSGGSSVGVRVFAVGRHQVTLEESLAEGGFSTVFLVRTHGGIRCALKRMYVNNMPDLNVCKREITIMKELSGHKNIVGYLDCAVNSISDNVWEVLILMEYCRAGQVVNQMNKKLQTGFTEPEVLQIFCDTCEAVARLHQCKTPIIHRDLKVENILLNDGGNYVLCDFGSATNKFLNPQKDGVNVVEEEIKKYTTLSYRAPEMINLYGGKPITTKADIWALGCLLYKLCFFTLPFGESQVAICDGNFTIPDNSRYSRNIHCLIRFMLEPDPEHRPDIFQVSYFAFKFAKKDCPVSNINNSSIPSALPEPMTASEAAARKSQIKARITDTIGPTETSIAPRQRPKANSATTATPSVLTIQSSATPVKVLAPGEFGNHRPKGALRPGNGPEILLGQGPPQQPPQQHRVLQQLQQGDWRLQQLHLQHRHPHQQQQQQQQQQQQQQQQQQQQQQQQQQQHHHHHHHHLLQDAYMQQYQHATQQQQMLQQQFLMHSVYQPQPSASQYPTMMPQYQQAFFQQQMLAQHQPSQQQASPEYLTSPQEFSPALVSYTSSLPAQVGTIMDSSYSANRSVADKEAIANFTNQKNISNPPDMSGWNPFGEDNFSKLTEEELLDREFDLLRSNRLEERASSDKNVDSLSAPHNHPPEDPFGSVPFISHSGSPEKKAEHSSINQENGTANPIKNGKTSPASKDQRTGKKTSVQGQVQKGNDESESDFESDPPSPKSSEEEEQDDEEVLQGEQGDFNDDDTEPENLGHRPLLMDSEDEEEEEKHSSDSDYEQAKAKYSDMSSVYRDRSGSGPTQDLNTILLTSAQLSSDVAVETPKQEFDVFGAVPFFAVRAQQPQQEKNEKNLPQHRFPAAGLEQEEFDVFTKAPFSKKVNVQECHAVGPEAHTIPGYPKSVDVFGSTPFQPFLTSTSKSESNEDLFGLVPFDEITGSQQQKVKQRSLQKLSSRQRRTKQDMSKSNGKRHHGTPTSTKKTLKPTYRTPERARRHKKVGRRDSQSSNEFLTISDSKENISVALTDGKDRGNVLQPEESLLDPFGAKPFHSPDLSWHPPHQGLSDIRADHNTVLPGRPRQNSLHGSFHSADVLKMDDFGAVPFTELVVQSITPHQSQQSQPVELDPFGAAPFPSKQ
Chain of IKKβ (O14920 whole entry): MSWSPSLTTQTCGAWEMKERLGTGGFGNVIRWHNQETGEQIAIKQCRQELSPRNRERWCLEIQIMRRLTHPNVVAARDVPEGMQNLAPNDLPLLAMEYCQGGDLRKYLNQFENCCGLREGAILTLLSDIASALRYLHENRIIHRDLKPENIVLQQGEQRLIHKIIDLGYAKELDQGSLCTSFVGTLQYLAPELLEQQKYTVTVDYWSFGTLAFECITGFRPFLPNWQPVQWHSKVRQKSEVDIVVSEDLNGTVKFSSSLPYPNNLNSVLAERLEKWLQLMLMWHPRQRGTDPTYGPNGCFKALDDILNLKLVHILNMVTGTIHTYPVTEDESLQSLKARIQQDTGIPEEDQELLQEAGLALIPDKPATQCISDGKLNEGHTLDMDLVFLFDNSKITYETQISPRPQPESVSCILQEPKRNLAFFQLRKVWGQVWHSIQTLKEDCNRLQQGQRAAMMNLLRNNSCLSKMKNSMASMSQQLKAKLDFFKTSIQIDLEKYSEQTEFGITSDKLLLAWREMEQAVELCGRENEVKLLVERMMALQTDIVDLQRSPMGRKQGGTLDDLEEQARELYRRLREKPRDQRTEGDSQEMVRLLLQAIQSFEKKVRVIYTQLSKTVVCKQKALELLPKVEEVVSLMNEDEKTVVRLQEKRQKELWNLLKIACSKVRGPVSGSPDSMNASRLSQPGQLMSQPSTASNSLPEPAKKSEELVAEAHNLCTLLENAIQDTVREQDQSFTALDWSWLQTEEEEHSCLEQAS
Chain of A-Raf(h) (P10398 whole entry): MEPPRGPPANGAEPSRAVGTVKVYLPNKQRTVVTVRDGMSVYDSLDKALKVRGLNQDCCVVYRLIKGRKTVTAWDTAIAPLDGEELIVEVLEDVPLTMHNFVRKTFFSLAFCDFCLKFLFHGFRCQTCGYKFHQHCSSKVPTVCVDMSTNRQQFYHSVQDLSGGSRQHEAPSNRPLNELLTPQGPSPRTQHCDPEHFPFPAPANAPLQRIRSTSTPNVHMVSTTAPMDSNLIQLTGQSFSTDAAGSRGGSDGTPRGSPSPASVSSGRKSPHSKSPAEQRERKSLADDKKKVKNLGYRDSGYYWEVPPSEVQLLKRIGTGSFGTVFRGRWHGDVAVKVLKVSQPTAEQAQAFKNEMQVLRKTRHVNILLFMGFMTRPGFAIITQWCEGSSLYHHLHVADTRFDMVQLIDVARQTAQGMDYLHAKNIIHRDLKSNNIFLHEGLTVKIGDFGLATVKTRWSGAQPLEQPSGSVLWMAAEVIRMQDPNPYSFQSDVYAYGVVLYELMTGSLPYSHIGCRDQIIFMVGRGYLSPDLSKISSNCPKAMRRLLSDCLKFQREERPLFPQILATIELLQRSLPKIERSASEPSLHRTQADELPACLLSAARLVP
Chain of JAK3(h) (P52333 whole entry): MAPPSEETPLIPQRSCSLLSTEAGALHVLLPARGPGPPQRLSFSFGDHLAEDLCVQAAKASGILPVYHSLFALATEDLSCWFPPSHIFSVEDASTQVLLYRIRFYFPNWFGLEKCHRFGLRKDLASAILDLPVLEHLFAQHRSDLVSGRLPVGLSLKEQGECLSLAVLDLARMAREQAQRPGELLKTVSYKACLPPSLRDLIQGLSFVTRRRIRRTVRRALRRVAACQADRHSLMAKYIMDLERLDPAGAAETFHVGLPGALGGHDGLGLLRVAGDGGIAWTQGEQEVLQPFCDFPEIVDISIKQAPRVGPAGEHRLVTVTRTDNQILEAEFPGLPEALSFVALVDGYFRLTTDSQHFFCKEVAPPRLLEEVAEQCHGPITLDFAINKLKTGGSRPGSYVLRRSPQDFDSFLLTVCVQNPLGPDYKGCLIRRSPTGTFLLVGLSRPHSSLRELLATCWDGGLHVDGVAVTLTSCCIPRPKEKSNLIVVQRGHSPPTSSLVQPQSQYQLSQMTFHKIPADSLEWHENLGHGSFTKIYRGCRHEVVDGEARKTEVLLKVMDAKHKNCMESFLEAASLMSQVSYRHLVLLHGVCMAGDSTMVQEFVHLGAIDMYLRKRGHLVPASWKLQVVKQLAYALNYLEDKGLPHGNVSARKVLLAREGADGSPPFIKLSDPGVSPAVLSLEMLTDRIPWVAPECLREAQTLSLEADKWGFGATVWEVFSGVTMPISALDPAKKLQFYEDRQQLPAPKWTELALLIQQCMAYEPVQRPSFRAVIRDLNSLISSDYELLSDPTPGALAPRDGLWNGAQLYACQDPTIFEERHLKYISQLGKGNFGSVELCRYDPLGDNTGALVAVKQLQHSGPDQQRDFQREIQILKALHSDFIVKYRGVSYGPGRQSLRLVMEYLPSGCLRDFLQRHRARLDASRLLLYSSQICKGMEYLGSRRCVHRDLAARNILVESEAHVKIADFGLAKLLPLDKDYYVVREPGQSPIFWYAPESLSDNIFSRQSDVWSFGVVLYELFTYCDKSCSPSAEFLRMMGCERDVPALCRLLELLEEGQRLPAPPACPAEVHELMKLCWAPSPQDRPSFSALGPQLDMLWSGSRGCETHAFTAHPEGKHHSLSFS

SMILES: Cc1cc2c(-c3ccc(NC(=O)[C@H](N)CC(C)(C)C)cc3C)ccnc2[nH]1 [Compound F-90, (2R)-2-Amino-4,4-dimethyl-N-[3-methyl-4-(2-methyl-1H-pyrrolo[2,3-b]pyridin-4-yl)phenyl]pentanamide]
- IC50 (BIKE): 902 nM
- IC50 (IKKβ): > 3000 nM
- % Activity (A-Raf(h)): 97%
- % Activity (BrSK1(h)): 96%
- % Activity (eEF-2K(h)): 92%
- % Activity (FGFR3(h)): 86%
- % Activity (Flt1(h)): 125%
- % Activity (JAK3(h)): 106%
- % Activity (MAP4K4(h)): 101%
- % Activity (MRCKα(h)): 94%
- % Activity (MSK2(h)): 88%
- % Activity (MuSK(h)): 96%
- % Activity (NEK11(h)): 97%
- % Activity (NIM1(h)): 112%
- % Activity (NUAK2(h)): 72%
- % Activity (PhKγ2(h)): 98%
- % Activity (Pim-2(h)): 117%
- % Activity (Pim-3(h)): 103%
- % Activity (PKA(h)): 109%
- % Activity (Plk3(h)): 100%
- % Activity (PRK2(h)): 92%
- % Activity (PTK5(h)): 90%
- % Activity (Rsk2(h)): 88%
- % Activity (SIK(h)): 105%
- % Activity (TAO1(h)): 83%
- % Activity (TSSK4(h)): 117%
